Earlier results on three compounds are cited in patent publication US20080102144A1, “FAT BETA-OXIDATION ENHANCING AND CARBOHYDRATE ABSORPTION INHIBITION SUPPLEMENT” (priority 2006, published 2008).

Like-named read-outs stand apart in the source and are kept apart here.

For series [1] the following is noted: mice.
For series [2], the system named is hepatic glucose-6-phosphate (G-6-P). To be noted: rate-limiting step in gluconeogenesis.
The test system of series [3] is carnitine palmitoyltransferase. To be noted: 0.5% and 1.0% supplemented diets after 6 days.
For series [4] the following is noted: human studies, as opposed to triacylglycerol, no increase in energy expenditure.
The conditions of series [5]: 16 weeks, versus triacylglycerol.

`Cn1c(=O)c2c(ncn2C)n(C)c1=O` [caffeine]: in series [1], the “total serum triglyceride levels” value is given as “decreased”.
For `O=C(/C=C/c1ccc(O)c(O)c1)O[C@@H]1C[C@](O)(C(=O)O)C[C@@H](O)[C@H]1O` [chlorogenic acid], in series [2], the “inhibition of hepatic glucose-6-phosphate (G-6-P)” value is recorded as “selectively inhibit”. For the same compound, the “carnitine palmitoyltransferase activity in the liver” value in series [3] is reported as “did not enhance”. Also, the “cell cycle phase of proliferation arrest” value with 3T3-preadipocyte cells (3T3-preadipocyte cells) was “G1 phase”. Besides, in the series on 3T3-preadipocyte cells (addition to 3T3-preadipocyte tissue cultures), the “proliferation of 3T3-preadipocyte cells” value is “inhibited the proliferation in both and a time- and dose-dependant manner”.
In the case of diacylglycerol, the “β-oxidation of fatty acids” value in series [4] was “increase”. Also, the hepatic fat oxidation entry (after a single dose, compared to triacylglycerol) is on record as “significant increase”. Besides, the “β-oxidation of fatty acids” value (animal studies, compared against triacylglycerol) is recorded as “increase”. For the same compound, for the setting “rats fed diacylglycerol”, the “glucose-6-phophate dehydrogenase, malic enzyme, fatty acid synthase and fatty acid synthesis” value is given as “lower”; the “mitochondrial and peroxisome oxidation of palmtoyl-CoA in liver homogenates” value is listed as “increased”. In series [5], the body mass index result is “significant decrease”, the body weight entry is “significant decrease”, the “total fat area as assessed by CT scan” value is listed as “significantly reduced” and the waist circumference result was “significant decrease”.
